Laboratory results reported in US9133155B2, “Antibacterial agents: high-potency myxopyronin derivatives” (Rutgers, The State University of New Jersey, priority 2010, dated 2015).
Converted amounts (≈) assume the structure as drawn. Like-named read-outs stand apart in the source and are kept apart here.

What was measured:
[1] = molecular target: E. coli RNA polymerase σ^70 holoenzyme (Escherichia coli, UniProt P0A8T7+P0A8V2); assay: Inhibition of Escherichia coli RNA polymerase (fluorescence-detected); type: biochemical; conditions: read-out: IC50 E. coli RNAP
Procedure: (§1) Fluorescence-detected RNA polymerase assays with E. coli RNA polymerase were performed by a modification of the procedure of Kuhlman et al., 2004 [Kuhlman, P., Duff, H. & Galant, A. (2004) A fluorescence-based assay for multisubunit DNA-dependent RNA polymerases. Anal. Biochem. 324, 183-190]. Reaction mixtures contained (20 μl): 0-100 nM test compound, 75 nM E. coli RNA polymerase σ^70 holoenzyme, 20 nM 384 bp DNA fragment containing the bacteriophage T4 N25 promoter, 100 μM ATP, 100 μM GTP, 100 μM UTP, 100 μM CTP, 50 mM Tris-HCl, pH 8.0, 100 mM KCl, 10 mM MgCl2, 1 mM DTT, 10 μg/ml bovine serum albumin, and 5.5% glycerol. Reaction components other than DNA and NTPs were pre-incubated for 10 min at 37° C. Reactions were carried out by addition of DNA and incubation for 5 min at 37° C., followed by addition of NTPs and incubation for 60 min at 37° C. DNA was removed by addition of 1 μl 5 mM CaCl2 and 2 U DNaseI (Ambion, Inc.), followed by incubation for 90 min at 37° C. RNA was quantified by addition of 100 μl RiboGreen RNA Quantitation Reagent (Invitrogen, Inc.; 1:500 dilution in Tris-HCl, pH 8.0, 1 mM EDTA), followed by incubation for 10 min at 25° C., followed by measurement of fluorescence intensity [excitation wavelength=485 nm and emission wavelength=535 nm; QuantaMaster QM1 spectrofluorometer (PTI, Inc.)].

[2] = molecular target: M. tuberculosis RNA polymerase (Mycobacterium tuberculosis, UniProt P9WGY7+P9WGY9); assay: Inhibition of Mycobacterium tuberculosis RNA polymerase (fluorescence-detected); type: biochemical
Procedure: as §1
Fluorescence-detected RNA polymerase assays with M. tuberculosis RNA polymerase were performed as in Example 17.1, using reaction mixtures containing (20 μl): 0-100 nM test compound, 75 nM M. tuberculosis RNA polymerase core enzyme, 300 nM M. tuberculosis σ^A, 20 nM 384 bp DNA fragment containing the bacteriophage […] N25 promoter, 100 μM ATP, 100 μM GTP, 100 μM UTP, 100 μM CTP, 40 mM Tris-HCl, pH 8.0, 80 mM NaCl, 5 mM MgCl2, 2.5 mM DTT, and 12.7% glycerol.

S. aureus RNA polymerase = S. aureus RNA polymerase (Staphylococcus aureus, UniProt P47768+Q2G0N5); assay: Inhibition of Staphylococcus aureus RNA polymerase (fluorescence-detected); type: biochemical
[3] = test system: Acinetobacter baumannii ATCC 19606; assay: Inhibition of bacterial growth in culture (MIC, spiral gradient endpoint); type: cell-based; conditions: for MIC: Acinetobacter baumannii, ATCC19606, Mueller-Hinton II agar, 16 h at 37° C.
From the text: (§2) Minimum inhibitory concentrations (MICs) for Staphylococcus aureus ATCC 12600, Enterococcus faecalis ATCC 19433, Acinetobacter baumannii ATCC 19606, and Escherichia coli D21f2tolC were quantified using spiral gradient endpoint assays, essentially as described [Wallace, A. and Corkill, J. (1989) Application of the spiral plating method to study antimicrobial action. J. Microbiol. Meths. […] Int. J. Exp. Clin. Chemother. 3, 31-38; Schalkowsky S. (1994) Measures of susceptibility from a spiral gradient of drug concentrations. Adv. Exp. Med. Biol. 349, 107-120]. Assays employed exponential-gradient plates containing 150 mm×4 mm Mueller-Hinton II cation-adjusted agar and 0.4-100 μg/ml of test compound. Plates were prepared using an Autoplate 4000 spiral plater (Spiral Biotech, Inc.). Saturated overnight cultures were swabbed radially onto plates, and plates were incubated for 16 h at 37° C. For each culture, the streak length was measured using a clear plastic template (Spiral Biotech, Inc.), the test-compound concentration at the streak endpoint was calculated using the program SGE (Spiral Biotech, Inc.), and the MIC was defined as the calculated test-compound concentration at the streak endpoint.

[4] = test system: Enterococcus faecalis ATCC 19433; assay: as above; type: cell-based; conditions: for MIC: Enterococcus faecalis, ATCC19433, Mueller-Hinton II agar, 16 h at 37° C., read-out: MIC E. faecalis 19433
From the text: as §2

[5] = test system: Escherichia coli D21f2tolC; assay: as above; type: cell-based; conditions: 16 h, read-out: MIC E. coli D21f2tolC
From the text: as §2

[6] = test system: Staphylococcus aureus ATCC 12600; assay: as above; type: cell-based; conditions: for MIC: Staphylococcus aureus, ATCC12600, Mueller-Hinton II agar, 16 h at 37° C., read-out: MIC S. aureus 12600; for inhibition of Staphylococcus aureus compared with Myx B and 7-desmethyl-Myx B: summary of Table 3
From the text: as §2

Staphylococcus aureus = assay: Antibacterial efficacy in mouse model of Staphylococcus aureus systemic infection (peritonitis model); type: in vivo, Swiss Webster mice
Procedure: (§3) Female Swiss Webster mice were experimentally infected by intraperitoneal administration of 5×10^7 colony forming units of Staphylococcus aureus in 10% hog gastric mucin. Test compounds (2-3 mg/ml in vehicle [9-19% dimethyacetamide/8-16% Cremophor EL in water, v/v]), positive controls (2 mg/ml vancomycin in vehicle), and negative controls (vehicle only and saline only), were administered by intravenous injection into a tail vein 1 h and 5 h post-infection (200 μl per injection). Survival was monitored for 12 h post-infection, or for 24, 48, and 72 h post-infection. At the end of the monitoring period, surviving animals were euthanized.

[7] = Tolerability upon intravenous injection (peritonitis model study); type: in vivo, Swiss Webster mice; conditions: daily total doses of at least 30 mg/kg; vehicles containing 9% to 19% dimethylacetamide and 8% to 16% Cremophor EL
Procedure: as §3

[8] = read-out: IC50 M. tuberculosis RNAP
[9] = Table 4a, total dose 30 mg/kg iv, 1 h and 5 h post-infection, vehicle 19% dimethylacetamide/8% Cremophor EL/73% water
[10] = Table 4c, total dose 30 mg/kg iv, vehicle 9% dimethylacetamide/8% Cremophor EL/83% water

Chain of S. aureus RNA polymerase (P0A0J0 whole entry): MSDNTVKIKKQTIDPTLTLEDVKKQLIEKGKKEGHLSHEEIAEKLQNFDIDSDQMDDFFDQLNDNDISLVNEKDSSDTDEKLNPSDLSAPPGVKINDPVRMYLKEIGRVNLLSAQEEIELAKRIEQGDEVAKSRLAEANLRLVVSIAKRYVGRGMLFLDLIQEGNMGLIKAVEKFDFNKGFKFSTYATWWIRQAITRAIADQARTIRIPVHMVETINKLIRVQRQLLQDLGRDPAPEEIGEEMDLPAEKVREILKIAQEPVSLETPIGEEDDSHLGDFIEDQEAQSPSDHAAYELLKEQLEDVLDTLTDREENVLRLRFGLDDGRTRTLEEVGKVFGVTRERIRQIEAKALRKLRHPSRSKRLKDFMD
Chain of S. aureus RNA polymerase (Q2G0N5 whole entry): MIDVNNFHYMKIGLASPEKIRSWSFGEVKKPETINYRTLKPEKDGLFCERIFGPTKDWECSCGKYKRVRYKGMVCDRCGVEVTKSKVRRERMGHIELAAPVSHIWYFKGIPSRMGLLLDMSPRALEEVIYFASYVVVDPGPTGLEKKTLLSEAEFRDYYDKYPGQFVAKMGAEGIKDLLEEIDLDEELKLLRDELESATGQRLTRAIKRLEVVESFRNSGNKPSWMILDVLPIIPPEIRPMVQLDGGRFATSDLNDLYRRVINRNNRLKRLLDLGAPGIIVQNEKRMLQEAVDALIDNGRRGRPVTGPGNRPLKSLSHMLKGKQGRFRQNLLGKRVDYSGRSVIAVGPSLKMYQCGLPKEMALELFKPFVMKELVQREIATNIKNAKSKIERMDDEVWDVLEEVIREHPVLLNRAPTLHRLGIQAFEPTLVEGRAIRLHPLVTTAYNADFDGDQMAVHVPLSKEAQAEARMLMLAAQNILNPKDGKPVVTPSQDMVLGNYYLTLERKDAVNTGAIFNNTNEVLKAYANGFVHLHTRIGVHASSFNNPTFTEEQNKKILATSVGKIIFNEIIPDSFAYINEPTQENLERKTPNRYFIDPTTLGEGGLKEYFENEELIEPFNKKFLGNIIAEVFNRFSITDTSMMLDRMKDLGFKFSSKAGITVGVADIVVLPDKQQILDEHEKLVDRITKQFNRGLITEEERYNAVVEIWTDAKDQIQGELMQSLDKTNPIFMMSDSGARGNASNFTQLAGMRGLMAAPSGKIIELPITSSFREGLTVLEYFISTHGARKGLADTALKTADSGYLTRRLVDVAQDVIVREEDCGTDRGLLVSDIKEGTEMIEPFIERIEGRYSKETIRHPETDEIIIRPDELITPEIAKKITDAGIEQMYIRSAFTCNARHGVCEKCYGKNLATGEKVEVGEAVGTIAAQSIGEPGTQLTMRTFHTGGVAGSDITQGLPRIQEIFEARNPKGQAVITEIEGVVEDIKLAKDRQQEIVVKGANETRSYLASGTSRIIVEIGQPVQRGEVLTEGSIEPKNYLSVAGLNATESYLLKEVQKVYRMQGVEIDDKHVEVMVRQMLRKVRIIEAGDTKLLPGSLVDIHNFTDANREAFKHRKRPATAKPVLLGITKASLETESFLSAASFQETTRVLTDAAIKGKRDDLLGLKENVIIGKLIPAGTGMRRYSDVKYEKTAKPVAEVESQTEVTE
Chain of S. aureus RNA polymerase (Q2FW32 whole entry, further chain): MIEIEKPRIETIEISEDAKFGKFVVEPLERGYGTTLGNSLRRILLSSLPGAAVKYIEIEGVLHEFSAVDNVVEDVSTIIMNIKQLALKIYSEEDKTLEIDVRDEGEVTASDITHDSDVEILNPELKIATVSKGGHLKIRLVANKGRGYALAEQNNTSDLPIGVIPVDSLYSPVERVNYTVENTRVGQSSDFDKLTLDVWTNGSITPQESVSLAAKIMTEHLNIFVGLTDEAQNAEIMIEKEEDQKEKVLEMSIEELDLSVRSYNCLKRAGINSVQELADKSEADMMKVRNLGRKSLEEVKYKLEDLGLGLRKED
Chain of S. aureus RNA polymerase (P47768 whole entry): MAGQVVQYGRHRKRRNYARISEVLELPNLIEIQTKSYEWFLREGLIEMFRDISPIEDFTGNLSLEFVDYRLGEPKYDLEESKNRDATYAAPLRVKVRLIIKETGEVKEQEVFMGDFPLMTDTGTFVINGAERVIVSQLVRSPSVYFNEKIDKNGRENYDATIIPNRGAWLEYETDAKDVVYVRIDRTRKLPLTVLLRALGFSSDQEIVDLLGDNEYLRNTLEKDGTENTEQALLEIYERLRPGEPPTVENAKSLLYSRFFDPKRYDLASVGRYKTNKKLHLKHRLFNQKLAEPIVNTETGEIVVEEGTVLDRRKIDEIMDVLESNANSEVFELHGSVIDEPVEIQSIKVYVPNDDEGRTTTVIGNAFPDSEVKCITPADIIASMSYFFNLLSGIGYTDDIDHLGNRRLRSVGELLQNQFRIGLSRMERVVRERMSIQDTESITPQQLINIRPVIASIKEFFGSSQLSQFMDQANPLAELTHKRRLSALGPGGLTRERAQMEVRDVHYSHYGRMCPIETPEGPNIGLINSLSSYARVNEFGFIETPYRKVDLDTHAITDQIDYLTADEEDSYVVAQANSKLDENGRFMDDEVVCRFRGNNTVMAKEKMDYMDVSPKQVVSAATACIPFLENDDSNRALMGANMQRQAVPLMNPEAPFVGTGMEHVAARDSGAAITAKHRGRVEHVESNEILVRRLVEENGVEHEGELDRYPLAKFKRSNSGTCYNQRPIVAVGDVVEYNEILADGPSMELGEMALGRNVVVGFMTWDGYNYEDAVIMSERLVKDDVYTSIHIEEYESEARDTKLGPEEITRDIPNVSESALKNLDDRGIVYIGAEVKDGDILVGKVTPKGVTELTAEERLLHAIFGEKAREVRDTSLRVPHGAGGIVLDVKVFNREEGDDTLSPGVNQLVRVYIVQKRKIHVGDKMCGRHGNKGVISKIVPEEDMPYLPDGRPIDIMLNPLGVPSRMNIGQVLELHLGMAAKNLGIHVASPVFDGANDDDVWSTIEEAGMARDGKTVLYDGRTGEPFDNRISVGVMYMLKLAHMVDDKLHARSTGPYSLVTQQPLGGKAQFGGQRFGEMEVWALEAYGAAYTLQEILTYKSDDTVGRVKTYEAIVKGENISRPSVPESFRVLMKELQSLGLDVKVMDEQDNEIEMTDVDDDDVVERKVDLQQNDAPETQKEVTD

Row | SMILES | IC50 [1] | IC50 [2, 8] | IC50 (S. aureus RNA polymerase; read-out: IC50 S. aureus RNAP) | MIC [3] | MIC [4] | MIC [5] | MIC [6] | IC50 [2] | IC50 (S. aureus RNA polymerase) | inhibition of Acinetobacter baumannii (in words) ([3]; summary of Table 3) | inhibition of Staphylococcus aureus compared with Myx B and 7-desmethyl-Myx B [6] | 12-hour survival (Staphylococcus aureus; [9]) | effect on survival in a mouse model of Staphylococcus aureus infection (in words) (Staphylococcus aureus; summary of Tables 4a-4c) | acute toxicity upon intravenous injection [7] | inhibition of Enterococcus faecalis compared with Myx B and 7-desmethyl-Myx B ([4]; summary of Table 3) | 12-hour survival (Staphylococcus aureus; Table 4b, total dose 30 mg/kg iv, vehicle 19% dimethylacetamide/16% Cremophor EL/73% water) | 24-hour survival (Staphylococcus aureus; [10]) | 48-hour survival (Staphylococcus aureus; [10]) | 72-hour survival (Staphylococcus aureus; [10])
1 | CCCCCCCC/C=C/C=C(\C)C(=O)c1c(O)cc([C@H](C)CC/C=C/NC(=O)OC)oc1=O (racemic) [compound 4, methyl ((E)-5-(4-hydroxy-3-((2E,4E)-2-methyltrideca-2,4-dienoyl)-2-oxo-2H-pyran-6-yl)hex-1-enyl)carbamate] | 4.6 nM | 320 nM | 8.3 nM | 3.1 µg/mL (≈ 6.55 µM) | > 40 µg/mL | < 0.18 µg/mL | 9.4 µg/mL (≈ 19.8 µM) |  |  |  |  |  |  |  |  |  |  |  | 
2 | CCCC/C(C)=C/C=C(\C)C(=O)c1c(O)cc(CCC/C=C/NC(=O)OC)oc1=O [7-desmethyl-Myx B, Methyl ((E)-5-(3-((2E,4E)-2,5-dimethylnona-2,4-dienoyl)-4-hydroxy-2-oxo-2H-pyran-6-yl)pent-1-en-1-yl)carbamate, reference compound] | 22 nM |  |  | > 40 µg/mL | 25 µg/mL (≈ 59.9 µM) | 0.195 µg/mL (≈ 0.467 µM) | 3.1 µg/mL (≈ 7.43 µM) | 81 nM | 140 nM | not detectably inhibited |  |  |  |  |  |  |  |  | 
3 | CCCCC/C=C/C=C(\C)C(=O)c1c(O)cc(C(C)CC/C=C/NC(=O)OC)oc1=O (centres unmarked) [compound 1, Methyl ((E)-5-(4-hydroxy-3-((2E,4E)-2-methyldeca-2,4-dienoyl)-2-oxo-2H-pyran-6-yl)hex-1-en-1-yl)carbamate] | 12 nM | 85 nM | 52 nM | > 40 µg/mL | > 40 µg/mL | 0.3 µg/mL (≈ 0.695 µM) | 1.4 µg/mL (≈ 3.24 µM) |  |  |  |  |  |  |  |  |  |  |  | 
4 | CCCCCC/C=C/C=C(\C)C(=O)c1c(O)cc(C(C)CC/C=C/NC(=O)OC)oc1=O (centres unmarked) [compound 2, Methyl ((E)-5-(4-hydroxy-3-((2E,4E)-2-methylundeca-2,4-dienoyl)-2-oxo-2H-pyran-6-yl)hex-1-en-1-yl)carbamate] | 11 nM | 70 nM | 23 nM | 25 µg/mL (≈ 56.1 µM) | > 40 µg/mL | 0.23 µg/mL (≈ 0.516 µM) | 1.4 µg/mL (≈ 3.14 µM) |  |  |  |  |  |  |  |  |  |  |  | 
5 | CCCCCCC/C=C/C=C(\C)C(=O)c1c(O)cc(C(C)CC/C=C/NC(=O)OC)oc1=O (centres unmarked) [compound 3, Methyl ((E)-5-(4-hydroxy-3-((2E,4E)-2-methyldodeca-2,4-dienoyl)-2-oxo-2H-pyran-6-yl)hex-1-en-1-yl)carbamate] | 6.8 nM | 270 nM | 17 nM | 5.6 µg/mL (≈ 12.2 µM) | > 40 µg/mL | < 0.18 µg/mL | 2.4 µg/mL (≈ 5.22 µM) |  |  |  |  |  |  |  |  |  |  |  | 
6 | CCCCCC/C(C)=C/C=C(\C)C(=O)c1c(O)cc(CCC/C=C/NC(=O)OC)oc1=O [compound 6, Methyl ((E)-5-(3-((2E,4E)-2,5-dimethylundeca-2,4-dienoyl)-4-hydroxy-2-oxo-2H-pyran-6-yl)pent-1-en-1-yl)carbamate] | 3.9 nM | 47 nM | 12 nM | 5.5 µg/mL (≈ 12.3 µM) | 13 µg/mL (≈ 29.2 µM) | 0.076 µg/mL (≈ 0.171 µM) | 0.45 µg/mL (≈ 1.01 µM) |  |  |  | more potently than Myx B and 7-desmethyl-Myx B |  |  |  |  |  |  |  | 
7 | CCCCCC/C(C)=C/C=C(\C)C(=O)c1c(O)cc(CCC/C=C/NC(=O)OCC)oc1=O [compound 7, Ethyl ((E)-5-(3-((2E,4E)-2,5-dimethylundeca-2,4-dienoyl)-4-hydroxy-2-oxo-2H-pyran-6-yl)pent-1-en-1-yl)carbamate] | 63 nM | 450 nM | 93 nM | > 40 µg/mL | > 40 µg/mL | 0.37 µg/mL (≈ 0.805 µM) | 12 µg/mL (≈ 26.1 µM) |  |  |  |  |  |  |  |  |  |  |  | 
8 | CCCCC/C(C)=C/C=C(\C)C(=O)c1c(O)cc(C(C)CC/C=C/NC(=O)OC)oc1=O (centres unmarked) [compound 8, Methyl ((E)-5-(3-((2E,4E)-2,5-dimethyldeca-2,4-dienoyl)-4-hydroxy-2-oxo-2H-pyran-6-yl)hex-1-en-1-yl)carbamate] | 4 nM | 19 nM | 9.2 nM |  |  |  | 0.5 µg/mL (≈ 1.12 µM) |  |  |  | more potently than Myx B and 7-desmethyl-Myx B | 75% | increase survival | tolerated without acute toxicity |  |  |  |  | 
9 | CCCCCC/C(C)=C/C=C(\C)C(=O)c1c(O)cc(C(C)CC/C=C/NC(=O)OC)oc1=O (centres unmarked) [compound 9, Methyl ((E)-5-(3-((2E,4E)-2,5-dimethylundeca-2,4-dienoyl)-4-hydroxy-2-oxo-2H-pyran-6-yl)hex-1-en-1-yl)carbamate] | 4.7 nM | 36 nM | 13 nM | 5.5 µg/mL (≈ 12 µM) | 6.4 µg/mL (≈ 13.9 µM) | 0.076 µg/mL (≈ 0.165 µM) | 0.34 µg/mL (≈ 0.74 µM) |  |  |  | more potently than Myx B and 7-desmethyl-Myx B |  |  |  | more potently than Myx B and 7-desmethyl-Myx B |  |  |  | 
10 | CCCCC/C(C)=C\C=C(/C)C(=O)c1c(O)cc(CCC/C=C/NC(=O)OC)oc1=O [compound 10, Methyl ((E)-5-(3-((2E,4Z)-2,5-dimethyldeca-2,4-dienoyl)-4-hydroxy-2-oxo-2H-pyran-6-yl)pent-1-en-1-yl)carbamate] | 40 nM | 340 nM | 100 nM | > 40 µg/mL | > 40 µg/mL | 0.39 µg/mL (≈ 0.904 µM) | 3.3 µg/mL (≈ 7.65 µM) |  |  |  |  |  |  |  |  |  |  |  | 
11 | CN[C@H](CC(C)C)C(=O)N[C@H]1C(=O)N[C@@H](CC(N)=O)C(=O)N[C@H]2C(=O)N[C@H]3C(=O)N[C@H](C(=O)N[C@H](C(=O)O)c4cc(O)cc(O)c4-c4cc3ccc4O)[C@H](O)c3ccc(c(Cl)c3)Oc3cc2cc(c3O[C@@H]2O[C@H](CO)[C@@H](O)[C@H](O)[C@H]2O[C@H]2C[C@](C)(N)[C@H](O)[C@H](C)O2)Oc2ccc(cc2Cl)[C@H]1O [vancomycin] |  |  |  |  |  |  |  |  |  |  |  | 100% |  |  |  | 100% | 100% | 100% | 100%
